# Like-named read-outs stand apart in the source and are kept apart here.
# Tests used:
# [1] = Plasma Stability Assay (Example A3), human plasma; type: in vitro ADME; conditions: prodrug remaining, 10 μM, 37° C.
# Text: (§1) The data is represented in the table below.
# [2] = type: in vitro ADME, mouse; conditions: prodrug remaining, 5 μM, 37° C.
# Procedure: (§2) Each test was carried out in duplicate for each time point; 0 min, 15 min, 30 min, 60 min, 120, 240 min. […]
# [3] = Metabolic Stability in Human Hepatocytes; type: in vitro ADME; conditions: cryopreserved human hepatocytes, 37° C.
# Procedure: A 2.5 uL aliquot of 100 μM test compound was incubated with 247.5 uL of cryopreserved hepatocytes suspended in serum-free incubation medium at 5×10^5 viable cells/mL. The mixture was incubated at 37° C. and shaken at 500 rpm for the designated time points (0.5, 15, 30, 60, 90, or 120 min). At each time point, 25 μL aliquot of incubation mixture was transferred to 125 μL of cold acetonitrile containing internal standard, followed by centrifugation for 30 min at 3,220 g. 100 μL of supernatant was mixed with 100 μL of distilled water for analysis by LC-MS/MS. Peak areas were determined from extracted ion chromatograms and in vitro half-life (t1/2) was determined from the concentration vs time regression slope, in vitro t1/2=0.693/k. Conversion of the in vitro t1/2 (in min) into the in vitro intrinsic clearance (in vitro CLint, in μL/min/10^6 cells) is done using: in vitro CLint=kV/N.
# [4] = Hydrolysis Assay - Condition 2 (DI Water); type: physicochemical; conditions: 25° C., 0.5 mM
# Procedure: 50 μL of compound (10 mM) in DMSO was diluted into 950 μL of DI water to a final concentration of 0.5 mM. The hydrolysis kinetics were conducted at 25° C. and measured by LCMS at a certain time interval.
# (§3) The corresponding LCMS chromatogram were recorded and the conversions were calculated by integration of each peak.
# (§4) • 1) LCMS spectra were obtained using Agilent 1200G1956A or SHIMADZU LCMS-2020. Standard LCMS conditions were as follows (running time 1.55 minutes): • Acidic condition: Mobile Phase A: 0.0375% TFA in water (v/v). Mobile Phase B: 0.01875% TFA in acetonitrile (v/v); Column: Kinetex EVO C18 30*2.1 mm, 5 μm. • Basic condition: Mobile Phase A: 0.025% NH3·H2O in water (v/v). Mobile Phase B: Acetonitrile; Column: Kinetex EVO C18 2.1×30 mm, 5 μm. • 2) Conversion (%)=peak area 1/(peak area 1+peak area 2)*100%, peak area 1 is the integration of hydrolyzed product, peak area 2 is the integration of starting material.
# [5] = type: in vitro ADME, human; conditions: prodrug remaining, 5 μM, 37° C.
# Procedure: as §2
# in vivo = type: in vivo, mouse; conditions: for half-life / C0 / clearance / Vd: iv, 2 mg/kg; for C0: back extrapolated; for clearance: flagged NR (not reportable, very high vs liver blood flow); for Vd: read-out: Vss
# Procedure: Total fifteen male mice were used in this study with n=3 mice/time point with sparse sampling study design. Animals were administered through intravenous route with solution formulation of 323 at 2 mg/kg dose.
# The extraction procedure for plasma/brain samples and the spiked plasma/brain calibration standards were identical (PMSF Stabilized Plasma and Brain used for Preparation of calibration standards): A 20 μL of study sample plasma/brain or spiked plasma/brain calibration standard was added to individual pre-labeled micro-centrifuge tubes followed by 200 μL of internal standard prepared in acetonitrile (Rosuvastatin+Cetrizine, 50 ng/mL) was added except for blank, where 200 μL of acetonitrile was added. Samples were vortexed for 5 minutes. Samples were centrifuged for 10 minutes at a speed of 4000 rpm at 4° C. Following centrifugation, 200 μL of clear supernatant was transferred in 96 well plates and analyzed using LC-MS/MS.
# Brain samples were diluted (1-part of tissue: 2-part of buffer) and homogenized. The homogenate was submitted for bioanalysis and the concentrations (ng/mL) received were corrected with dilution factor (3×) and the final reported concentrations were represented in ng/g.
# The plasma and brain concentration-time data of 323 and 001 were used for the pharmacokinetic analysis.
# LLOQ: 323: 1.02 ng/mL for plasma and brain 001: 1.01 ng/mL for plasma and brain
# [6] = Plasma Stability Assay (Example A3), rat plasma; type: in vitro ADME; conditions: prodrug remaining, 10 μM, 37° C.
# Text: as §1
# [7] = Hydrolysis Assay - Condition 1 (SGF); type: physicochemical; conditions: SGF with pepsin pH 1.5, 37° C., 0.5 mM
# Procedure: 50 μL of compound (10 mM) in DMSO was diluted into 950 μL of Simulated Gastric Fluid (SGF) with pepsin (pH 1.5) to a final concentration of 0.5 mM. The hydrolysis kinetics were conducted at 37° C. and measured by LCMS at a certain time interval.
# as §3, §4
# [8] = male, C57BL/6, mouse, in vivo, 323 in brain after 323 IV 2 mg/kg
# [9] = male, C57BL/6, mouse, in vivo, 323 in plasma after 323 IV 2 mg/kg
# [10] = male, C57BL/6, mouse, in vivo, 323 after 323 IV 2 mg/kg, read-out: Brain concentrations (mean)
# [11] = male, C57BL/6, mouse, in vivo, 323 after 323 IV 2 mg/kg, read-out: Plasma concentrations (mean)
structure (smiles),measurement,setting,value
"COc1ccc([C@@]23CCC(OP4(=O)OCC(C)(C)CO4)=C[C@@H]2N(C)CC3)cc1OC [Compound 323, 2-[[(3aS,7aS)-3a-(3,4-dimethoxyphenyl)-1-methyl-3,4,5,7a-tetrahydro-2H-indol-6-yl]oxy]-5,5-dimethyl-1,3,2λ^5-dioxaphosphinane 2-oxide]",Human Plasma Prodrug (%),[1]; 0 min,100.00%
same,Human Plasma Prodrug (%),[1]; 10 min,86.9%
same,Human Plasma Prodrug (%),[1]; 30 min,70.8%
same,Human Plasma Prodrug (%),[1]; 60 min,52.7%
same,Human Plasma Prodrug (%),[1]; 120 min,27.0%
same,Human Plasma Prodrug (%),[1]; 240 min,9.3%
same,Mouse Plasma Prodrug (%),[2]; 0 min,100.0%
same,Mouse Plasma Prodrug (%),[2]; 15 min,>99%
same,Mouse Plasma Prodrug (%),[2]; 30 min,>99%
same,Mouse Plasma Prodrug (%),[2]; 60 min,94.1%
same,Mouse Plasma Prodrug (%),[2]; 120 min,71.9%
same,Mouse Plasma Prodrug (%),[2]; 240 min,50.3%
same,half-life at 1 μM,[3],327 min
same,hepatocyte CLint at 1 μM,[3],4.2 µL/min/1e6 cells
same,Condition 2 Conversion (%),[4]; 1 min,0%
same,Condition 2 Conversion (%),[4]; 5 min,0%
same,Condition 2 Conversion (%),[4]; 30 min,0%
same,Condition 2 Conversion (%),[4]; 1 h,0%
same,Condition 2 Conversion (%),[4]; 4 h,0%
same,Condition 2 Conversion (%),[4]; 24 h,0%
same,Human Plasma Prodrug (%),[5]; 0 min,100%
same,Human Plasma Prodrug (%),[5]; 15 min,76.6%
same,Human Plasma Prodrug (%),[5]; 30 min,64.5%
same,Human Plasma Prodrug (%),[5]; 60 min,38.1%
same,Human Plasma Prodrug (%),[5]; 120 min,12.8%
same,Human Plasma Prodrug (%),[5]; 240 min,1.60%
same,brain concentrations quantifiable up to,in vivo; 323 after 323 IV 2 mg/kg,≤ 0.5 h
same,plasma concentrations quantifiable up to,in vivo; 323 after 323 IV 2 mg/kg,up to 2 h
same,AUClast,in vivo; 323 in brain after 323 IV 2 mg/kg,6.56 ng·h/g
same,half-life,in vivo; [8],10.8 min
same,C0,in vivo; [8],33.9 ng/mL
same,clearance,in vivo; [8],4350 mL/min/kg
same,Vd,in vivo; [8],61.7 L/kg
same,half-life,in vivo; [9],10.2 min
same,C0,in vivo; [9],609 ng/mL
same,clearance,in vivo; [9],344 mL/min/kg
same,Vd,in vivo; [9],3.25 L/kg
same,concentration at 0.08 h,in vivo; [10],22.1 ng/g
same,concentration at 0.08 h,in vivo; [11],332 ng/mL
same,concentration at 0.25 h,in vivo; [10],8.97 ng/g
same,concentration at 0.25 h,in vivo; [11],91.6 ng/mL
same,concentration at 0.5 h,"in vivo; male, C57BL/6, mouse, in vivo, 323 after 323 IV 2 mg/kg, average of two values, read-out: Brain concentrations (mean)",4.43 ng/g
same,concentration at 0.5 h,in vivo; [11],26.3 ng/mL
same,concentration at 1 h,"in vivo; male, C57BL/6, mouse, in vivo, 323 after 323 IV 2 mg/kg, 1 h, read-out: Plasma concentrations (mean)",4.05 ng/mL
same,concentration at 2 h,"in vivo; male, C57BL/6, mouse, in vivo, 323 after 323 IV 2 mg/kg, 2 h, single value, excluded from data analysis, read-out: Plasma concentrations (mean)",1.03 ng/mL
same,Kp,"in vivo; male, C57BL/6, mouse, in vivo, 323 after 323 IV 2 mg/kg, read-out: Brain-Kp",0.07
same,AUC(0-t),in vivo; [9],96 ng·h/mL
same,Rat Plasma Prodrug (%),[6]; 0 min,100.00%
same,Rat Plasma Prodrug (%),[6]; 10 min,>99%
same,Rat Plasma Prodrug (%),[6]; 30 min,95.5%
same,Rat Plasma Prodrug (%),[6]; 60 min,82.0%
same,Rat Plasma Prodrug (%),[6]; 120 min,58.8%
same,Rat Plasma Prodrug (%),[6]; 240 min,34.0%
same,Condition 1 Conversion (%),[7]; 1 min,0%
same,Condition 1 Conversion (%),[7]; 5 min,0%
same,Condition 1 Conversion (%),[7]; 30 min,0%
same,Condition 1 Conversion (%),[7]; 1 h,0%
same,Condition 1 Conversion (%),[7]; 4 h,0%
same,Condition 1 Conversion (%),[7]; 24 h,0%
